Columns and labels:
Assay in all cases: Test C preemergence
Type in all cases: in vivo
corn (Zea mays) = conditions: for Plant response rating, Corn: scale 0 to 100, 0 no effect, 100 complete control
Outline: (§1)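 Seeds in loam-sand soil treated preemergence, or plants in peat-based medium sprayed postemergence at 2–18 cm (1- to 4-leaf stage), with compound in a non-phytotoxic solvent mixture containing surfactant. Greenhouse-held 13–15 d, then visually rated against controls on a 0–100 scale (0 = no effect, 100 = complete control); dash = not tested.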

[1] = tested on: blackgrass (Alopecurus myosuroides); conditions: for Plant response rating, Blackgrass: scale 0 to 100, 0 no effect, 100 complete control
Outline: as §1

[2] = tested on: crabgrass, large (large crabgrass, Digitaria sanguinalis); conditions: for Plant response rating, Crabgrass, Large: scale 0 to 100, 0 no effect, 100 complete control
Outline: as §1

[3] = tested on: waterhemp (common waterhemp, Amaranthus rudis); conditions: for Plant response rating, Waterhemp: scale 0 to 100, 0 no effect, 100 complete control
Outline: as §1

[4] = tested on: velvetleaf (Abutilon theophrasti); conditions: for Plant response rating, Velvetleaf: scale 0 to 100, 0 no effect, 100 complete control
Outline: as §1

[5] = tested on: Galium (catchweed bedstraw, Galium aparine); conditions: for Plant response rating, Galium: scale 0 to 100, 0 no effect, 100 complete control
Outline: as §1

[6] = tested on: ryegrass, Italian (Italian ryegrass, Lolium multiflorum); conditions: for Plant response rating, Ryegrass, Italian: scale 0 to 100, 0 no effect, 100 complete control
Outline: as §1

[7] = tested on: morningglory (Ipomoea coccinea); conditions: for Plant response rating, Morningglory: scale 0 to 100, 0 no effect, 100 complete control
Outline: as §1

soybean (Glycine max) = conditions: for Plant response rating, Soybean: scale 0 to 100, 0 no effect, 100 complete control
Outline: as §1

[8] = tested on: wheat (winter wheat, Triticum aestivum); conditions: for Plant response rating, Wheat: scale 0 to 100, 0 no effect, 100 complete control
Outline: as §1

[9] = tested on: oilseed rape (Brassica napus); conditions: for Plant response rating, Oilseed Rape: scale 0 to 100, 0 no effect, 100 complete control
Outline: as §1

[10] = tested on: johnsongrass (Sorghum halepense); conditions: for Plant response rating, Johnsongrass: scale 0 to 100, 0 no effect, 100 complete control
Outline: as §1

[11] = tested on: ragweed (common ragweed, Ambrosia elatior); conditions: for Plant response rating, Ragweed: scale 0 to 100, 0 no effect, 100 complete control
Outline: as §1

[12] = tested on: barnyardgrass (Echinochloa crus-galli); conditions: for Plant response rating, Barnyardgrass: scale 0 to 100, 0 no effect, 100 complete control
Outline: as §1

[13] = tested on: foxtail, giant (giant foxtail, Setaria faberii); conditions: for Plant response rating, Foxtail, Giant: scale 0 to 100, 0 no effect, 100 complete control
Outline: as §1

[14] = tested on: nutsedge, yellow (yellow nutsedge, Cyperus esculentus); conditions: for Plant response rating, Nutsedge, Yellow: scale 0 to 100, 0 no effect, 100 complete control
Outline: as §1

[15] = tested on: lambsquarters (Chenopodium album); conditions: for Plant response rating, Lambsquarters: scale 0 to 100, 0 no effect, 100 complete control
Outline: as §1

[16] = tested on: pigweed (Amaranthus retroflexus); conditions: for Plant response rating, Pigweed: scale 0 to 100, 0 no effect, 100 complete control
Outline: as §1

[17] = 31 g ai/ha, 0 is no effect, 100 is complete control

Cc1ccc(C2CN(C)C(=O)C2C(=O)Nc2ccccc2C(F)(F)F)cc1 (stereo not drawn) [Compound 665]
Plant response rating (scale of 0 to 100), Corn (corn (Zea mays); [17]): 0
Plant response rating, Corn (corn (Zea mays); 62 g ai/ha): 10
Plant response rating, Corn (corn (Zea mays); 125 g ai/ha): 75
Plant response rating, Corn (corn (Zea mays); 250 g ai/ha): 70
Plant response rating (scale of 0 to 100), Blackgrass [1, 17]: 60
Plant response rating, Blackgrass ([1]; 62 g ai/ha): 60
Plant response rating, Blackgrass ([1]; 125 g ai/ha): 90
Plant response rating, Blackgrass ([1]; 250 g ai/ha): 90
Plant response rating (scale of 0 to 100), Crabgrass, Large [2, 17]: 98
Plant response rating, Crabgrass, Large ([2]; 62 g ai/ha): 100
Plant response rating, Crabgrass, Large ([2]; 125 g ai/ha): 100
Plant response rating, Crabgrass, Large ([2]; 250 g ai/ha): 100
Plant response rating (scale of 0 to 100), Waterhemp [3, 17]: 50
Plant response rating, Waterhemp ([3]; 62 g ai/ha): 40
Plant response rating, Waterhemp ([3]; 125 g ai/ha): 65
Plant response rating, Waterhemp ([3]; 250 g ai/ha): 85
Plant response rating (scale of 0 to 100), Velvetleaf [4, 17]: 20
Plant response rating, Velvetleaf ([4]; 62 g ai/ha): 35
Plant response rating, Velvetleaf ([4]; 125 g ai/ha): 60
Plant response rating, Velvetleaf ([4]; 250 g ai/ha): 70
Plant response rating (scale of 0 to 100), Galium [5, 17]: 90
Plant response rating, Galium ([5]; 62 g ai/ha): 90
Plant response rating, Galium ([5]; 125 g ai/ha): 90
Plant response rating, Galium ([5]; 250 g ai/ha): 90
Plant response rating (scale of 0 to 100), Ryegrass, Italian [6, 17]: 30
Plant response rating, Ryegrass, Italian ([6]; 62 g ai/ha): 60
Plant response rating, Ryegrass, Italian ([6]; 125 g ai/ha): 65
Plant response rating, Ryegrass, Italian ([6]; 250 g ai/ha): 60
Plant response rating (scale of 0 to 100), Morningglory [7, 17]: 0
Plant response rating, Morningglory ([7]; 62 g ai/ha): 15
Plant response rating, Morningglory ([7]; 125 g ai/ha): 20
Plant response rating, Morningglory ([7]; 250 g ai/ha): 10
Plant response rating (scale of 0 to 100), Soybean (soybean (Glycine max); [17]): 10
Plant response rating, Soybean (soybean (Glycine max); 62 g ai/ha): 10
Plant response rating, Soybean (soybean (Glycine max); 125 g ai/ha): 0
Plant response rating, Soybean (soybean (Glycine max); 250 g ai/ha): 10
Plant response rating (scale of 0 to 100), Wheat [8, 17]: 15
Plant response rating, Wheat ([8]; 62 g ai/ha): 50
Plant response rating, Wheat ([8]; 125 g ai/ha): 50
Plant response rating, Wheat ([8]; 250 g ai/ha): 90
Plant response rating (scale of 0 to 100), Oilseed Rape [9, 17]: 30
Plant response rating, Oilseed Rape ([9]; 62 g ai/ha): 60
Plant response rating, Oilseed Rape ([9]; 125 g ai/ha): 80
Plant response rating, Oilseed Rape ([9]; 250 g ai/ha): 85
Plant response rating (scale of 0 to 100), Johnsongrass [10, 17]: 10
Plant response rating, Johnsongrass ([10]; 62 g ai/ha): 25
Plant response rating, Johnsongrass ([10]; 125 g ai/ha): 25
Plant response rating, Johnsongrass ([10]; 250 g ai/ha): 45
Plant response rating (scale of 0 to 100), Ragweed [11, 17]: 40
Plant response rating, Ragweed ([11]; 62 g ai/ha): 55
Plant response rating, Ragweed ([11]; 125 g ai/ha): 70
Plant response rating, Ragweed ([11]; 250 g ai/ha): 75
Plant response rating (scale of 0 to 100), Barnyardgrass [12, 17]: 85
Plant response rating, Barnyardgrass ([12]; 62 g ai/ha): 95
Plant response rating, Barnyardgrass ([12]; 125 g ai/ha): 98
Plant response rating, Barnyardgrass ([12]; 250 g ai/ha): 100
Plant response rating (scale of 0 to 100), Foxtail, Giant [13, 17]: 90
Plant response rating, Foxtail, Giant ([13]; 62 g ai/ha): 95
Plant response rating, Foxtail, Giant ([13]; 125 g ai/ha): 98
Plant response rating, Foxtail, Giant ([13]; 250 g ai/ha): 98
Plant response rating (scale of 0 to 100), Nutsedge, Yellow [14, 17]: 0
Plant response rating, Nutsedge, Yellow ([14]; 62 g ai/ha): 0
Plant response rating, Nutsedge, Yellow ([14]; 125 g ai/ha): 0
Plant response rating, Nutsedge, Yellow ([14]; 250 g ai/ha): 0
Plant response rating (scale of 0 to 100), Lambsquarters [15, 17]: 10
Plant response rating, Lambsquarters ([15]; 62 g ai/ha): 45
Plant response rating, Lambsquarters ([15]; 125 g ai/ha): 70
Plant response rating, Lambsquarters ([15]; 250 g ai/ha): 85
Plant response rating (scale of 0 to 100), Pigweed [16, 17]: 0
Plant response rating, Pigweed ([16]; 62 g ai/ha): 60
Plant response rating, Pigweed ([16]; 125 g ai/ha): 50
Plant response rating, Pigweed ([16]; 250 g ai/ha): 50
